Assay results taken from patent publication US9540343B2 (Gilead Sciences, Inc., priority 2011, dated 2017).

Key:
HIV-IIIb = assay: Test A: Antiviral assay in MT4 cells; assay type: cell-based, HIV-1; conditions: Human immunodeficiency virus 1, IIIB, MT4, 120 h, read-out: % inhibition at 2 μM, percent inhibition of virus-induced cell killing, from dose response curve at 2 uM drug; MT-4 cells infected with HIV-IIIb, 5 days, CellTiter-Glo
in vitro = conditions: human, uninfected MT-4 cells, CC50 (nM), same protocol as Test A, CellTiter-Glo
In short: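 Cytoprotection read-out: CellTiter-Glo chemiluminescence after 5 days at 37 °C of HIV-IIIb-infected MT-4 cells (m.o.i. 0.003) with compound in 10-point 3-fold dilutions, quadruplicate, 10% FBS. Cytotoxicity (CC50) measured identically without virus.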

| SMILES | inhibition at 2 µM (HIV-IIIb) [%] | CC50 at 5 days (in vitro) [nM] |
| --- | --- | --- |
| O=C(Cn1nc(C(F)F)c2c1C(F)(F)C1CC21)N[C@@H](Cc1cc(F)cc(F)c1)c1ncccc1-c1ccc(OC(F)(F)F)cc1 (stereo partly drawn) [Example 230, 2-(3-(difluoromethyl)-5,5-difluoro-3b,4,4a,5-tetrahydro-1H-cyclopropa[3,4]cyclopenta[1,2-c]pyrazol-1-yl)-N—((S)-2-(3,5-difluorophenyl)-1-(3-(4-(trifluoromethoxy)phenyl)pyridin-2-yl)ethyl)acetamide] | 66 | 14000 |
| CC(C)(C)C#Cc1cn(CC(=O)N[C@@H](Cc2cc(F)cc(F)c2)c2ncccc2-c2ccc(F)c(C(N)=O)c2)nc1C(F)(F)F [Example 357, (S)-5-(2-(2-(3,5-difluorophenyl)-1-(2-(4-(3,3-dimethylbut-1-ynyl)-3-(trifluoromethyl)-1H-pyrazol-1-yl)acetamido)ethyl)pyridin-3-yl)-2-fluorobenzamide] | 0 | 8820 |
| O=C(Cn1nc(C(F)F)c2c1C(F)(F)C1CC21)N[C@@H](Cc1cc(F)cc(F)c1)c1ncccc1-c1ccc2[nH]ncc2c1 (stereo partly drawn) [Example 421, (S)—N-(1-(3-(indozol-5-yl)-pyridin-2-yl)-2-(3,5-difluorophenyl)ethyl)-2-(3-(difluoromethyl)-5,6-dihydro-4,5-(methano)-6,6-difluoro-cyclopenta[c]pyrazol-1(4H)-yl)acetamide] | 70 | 10200 |
| CC(C)c1nccn1CC(=O)N[C@@H](Cc1cc(F)cc(F)c1)c1ncccc1-c1ccc(F)c(C(N)=O)c1 [Example 537, (S)-5-(2-(2-(3,5-difluorophenyl)-1-(2-(2-isopropyl-1H-imidazol-1-yl)acetamido)ethyl)pyridin-3-yl)-2-fluorobenzamide] | 2 | > 53200 |
| CC(C)Cc1cc(C(F)(F)F)nn1CC(=O)N[C@@H](Cc1cc(F)cc(F)c1)c1ncccc1-c1ccc(F)c(C(N)=O)c1 [Example 207C, (S)-5-(2-(2-(3,5-difluorophenyl)-1-(2-(5-isobutyl-3-(trifluoromethyl)-1H-pyrazol-1-yl)acetamido)ethyl)pyridin-3-yl)-2-fluorobenzamide] | 16 | 13200 |
| COc1ccc2cc(-c3cccnc3[C@H](Cc3cc(F)cc(F)c3)NC(=O)Cc3c[nH]c4ccc(F)cc34)ccc2c1 [Example 435, (S)—N-(2-(3,5-difluorophenyl)-1-(3-(6-methoxynaphthalen-2-yl)pyridin-2-yl)ethyl)-2-(5-fluoro-1H-indol-3-yl)acetamide] | 7 | 13900 |
| NC(=O)c1cc(-c2cccnc2[C@H](Cc2cc(F)cc(F)c2)NC(=O)Cn2[nH]c(=O)c3c2CCCC3)ccc1F [Example 123E, (S)-5-(2-(2-(3,5-difluorophenyl)-1-(2-(3-oxo-2,3,4,5,6,7-hexahydro-1H-indazol-1-yl)acetamido)ethyl)pyridin-3-yl)-2-fluorobenzamide] | 84 | > 53200 |
| Cc1cc2[nH]cc(CC(=O)N[C@@H](Cc3cc(F)cc(F)c3)c3ncccc3-c3cccc(C(N)=O)c3)c2cc1O [Example 593, (S)-3-(2-(2-(3,5-difluorophenyl)-1-(2-(5-hydroxy-6-methyl-1H-indol-3-yl)acetamido)ethyl)pyridin-3-yl)benzamide] | 52 | > 53000 |
| NC(=O)c1cc(-c2cccnc2[C@H](Cc2cc(F)cc(F)c2)NC(=O)Cn2nc(C(F)(F)F)c3c2CC2C3C2(F)F)ccc1F (stereo partly drawn) [Example 199E, 5-(2-((1S)-1-(2-(4,4-difluoro-3-(trifluoromethyl)-3b,4,4a,5-tetrahydro-1H-cyclopropa[3,4]cyclopenta[1,2-c]pyrazol-1-yl)acetamido)-2-(3,5-difluorophenyl)ethyl)pyridin-3-yl)-2-fluorobenzamide] | 18 | 9520 |
| NC(=O)c1cc(-c2cccnc2[C@H](Cc2cc(F)cc(F)c2)NC(=O)Cn2nc(C(F)(F)F)c3c2CC(=O)C3)ccc1F [Example 237, (S)-5-(2-(2-(3,5-difluorophenyl)-1-(2-(5-oxo-3-(trifluoromethyl)-5,6-dihydrocyclopenta[c]pyrazol-1(4H)-yl)acetamido)ethyl)pyridin-3-yl)-2-fluorobenzamide] | 1 | 38200 |
| CCC(C(=O)N[C@@H](Cc1cc(F)cc(F)c1)c1ncccc1-c1ccc(F)c(C(N)=O)c1)n1cnc2cc(C)c(C)cc21 (stereo partly drawn) [Example 587C, 5-(2-((1S)-2-(3,5-difluorophenyl)-1-(2-(5,6-dimethyl-1H-benzo[d]imidazol-1-yl)butanamido)ethyl)pyridin-3-yl)-2-fluorobenzamide] | 93 | 23000 |
| NC(=O)c1cc(-c2cccnc2[C@H](Cc2cc(F)cc(F)c2)NC(=O)Cn2ccc3cnccc32)ccc1F [Example 514, (S)-5-(2-(1-(2-(1H-pyrrolo[3,2-c]pyridin-1-yl)acetamido)-2-(3,5-difluorophenyl)ethyl)pyridin-3-yl)-2-fluorobenzamide] | 3 | > 46100 |
| CC(C)(C)OC(=O)N1C[C@@H](c2ccccc2)C[C@H]1C(=O)N[C@@H](Cc1cc(F)cc(F)c1)c1ncccc1-c1ccc(F)c(C(N)=O)c1 [Example 148, (2S,4R)-tert-butyl 2-((S)-1-(3-(3-carbamoyl-4-fluorophenyl)pyridin-2-yl)-2-(3,5-difluorophenyl)ethylcarbamoyl)-4-phenylpyrrolidine-1-carboxylate] | 11 | 12300 |
| NC(=O)c1cc(-c2cccnc2[C@H](Cc2cc(F)cc(F)c2)NC(=O)[C@@H]2C[C@@H](O)CN2)ccc1F [Example 178, (2S,4R)—N—((S)-1-(3-(3-carbamoyl-4-fluorophenyl)pyridin-2-yl)-2-(3,5-difluorophenyl)ethyl)-4-hydroxypyrrolidine-2-carboxamide] | 0 | > 53000 |
| Cc1cc2ncn(CC(=O)N[C@H](Cc3cc(F)cc(F)c3)c3ncncc3-c3ccc(Cl)cc3)c2cc1C [Example 279G, (R)—N-(1-(5-(4-chlorophenyl)pyrimidin-4-yl)-2-(3,5-difluorophenyl)ethyl)-2-(5,6-dimethyl-1H-benzo[d]imidazol-1-yl)acetamide] | 82 | 9300 |
| CNC(=O)c1ccc(-c2cccnc2[C@H](Cc2cc(F)cc(F)c2)NC(=O)Cc2c[nH]c3ccc(F)cc23)cc1Cl [Example 405, (S)-2-chloro-4-(2-(2-(3,5-difluorophenyl)-1-(2-(5-fluoro-1H-indol-3-yl)acetamido)ethyl)pyridin-3-yl)-N-methylbenzamide] | 11 | 21100 |
| NC(=O)c1cc(-c2cccnc2[C@H](Cc2cc(F)cc(F)c2)NC(=O)Cn2nc(-n3cccn3)ccc2=O)ccc1F [Example 147, (S)-5-(2-(2-(3,5-difluorophenyl)-1-(2-(6-oxo-3-(1H-pyrazol-1-yl)pyridazin-1(6H)-yl)acetamido)ethyl)pyridin-3-yl)-2-fluorobenzamide] | 10 | > 53200 |
| Cc1ccccc1-c1cccnc1C(Cc1cc(F)cc(F)c1)NC(=O)Cn1nc(C(F)(F)F)c2c1CCCC2 (stereo not drawn) [Example 4, N-(2-(3,5-difluorophenyl)-1-(3-o-tolylpyridin-2-yl)ethyl)-2-(3-(trifluoromethyl)-4,5,6,7-tetrahydro-1H-indazol-1-yl)acetamide] | 69 | 10300 |
| NC(=O)c1cc(-c2cccnc2[C@H](Cc2cc(F)cc(F)c2)NC(=O)Cn2cc(C3CC3)c(C(F)(F)F)n2)ccc1F [Example 276, (S)-5-(2-(1-(2-(4-cyclopropyl-3-(trifluoromethyl)-1H-pyrazol-1-yl)acetamido)-2-(3,5-difluorophenyl)ethyl)pyridin-3-yl)-2-fluorobenzamide] | 29 | 16900 |
| O=C(Cc1c[nH]c2ccc(F)cc12)N[C@@H](Cc1cc(F)cc(F)c1)c1ncccc1-c1cccc(OC(F)(F)F)c1 [Example 67, (S)—N-(2-(3,5-difluorophenyl)-1-(3-(3-(trifluoromethoxy)phenyl)pyridin-2-yl)ethyl)-2-(5-fluoro-1H-indol-3-yl)acetamide] | 0 | 6460 |
| O=C(Cn1nc(C(F)F)c2c1C(F)(F)C1CC21)N[C@@H](Cc1cc(F)cc(F)c1)c1ncccc1-c1ccc2ncccc2c1 (stereo partly drawn) [Example 411, (S)—N-(1-(3-(quinoline-6-yl)-pyridin-2-yl)-2-(3,5-difluorophenyl)ethyl)-2-(3-(difluoromethyl)-5,6-dihydro-4,5-(methano)-6,6-difluoro-cyclopenta[c]pyrazol-1(4H)-yl)acetamide] | 53 | 8980 |
| Cc1cc(C)c2c(c1)NC(=O)C2CC(=O)N[C@@H](Cc1cccc(F)c1)c1ncccc1-c1ccc(F)c(C(N)=O)c1 (stereo partly drawn) [Example 59E, 5-(2-((1S)-1-(2-(4,6-dimethyl-2-oxoindolin-3-yl)acetamido)-2-(3-fluorophenyl)ethyl)pyridin-3-yl)-2-fluorobenzamide] | 75 | 45100 |
| NC(=O)c1cc(-c2cccnc2[C@H](Cc2cc(F)cc(F)c2)NC(=O)Cn2nc(C(F)F)c3c2C(=O)CCC3)ccc1F [Example 370, (S)-5-(2-(1-(2-(3-(difluoromethyl)-7-oxo-4,5,6,7-tetrahydro-1H-indazol-1-yl)acetamido)-2-(3,5-difluorophenyl)ethyl)pyridin-3-yl)-2-fluorobenzamide] | 33 | 22700 |
| O=C(Cc1c[nH]c2ccc(F)cc12)N[C@@H](Cc1cc(F)cc(F)c1)c1ncccc1-c1ccc(N2CCCC2)nc1 [Example 101, (S)—N-(2-(3,5-difluorophenyl)-1-(6′-(pyrrolidin-1-yl)-3,3′-bipyridin-2-yl)ethyl)-2-(5-fluoro-1H-indol-3-yl)acetamide] | 29 | 12600 |
